The values below come from patent publication US20220009976A1, “Peptide Possessing Mesenchymal-Stem-Cell Mobilizing Activity” (StemRIM Inc., priority 2018, published 2022).

In data set [1] the test system is atopic dermatitis model mice. Description: Efficacy in MC903-induced atopic dermatitis (AD) model mice. The data set is classed as in vivo, C57BL/6 mice. The text has this:
MC903 (generic name: Calcipotriol) was used to induce atopic dermatitis (hereinafter, also referred to as “AD”) in mice. In addition, the peptide 1r10 (TFA salt) described in Example 1 was used as the test substance.
C57BL/6 mice (C57BL/6JJcl, 7-8 weeks old, male, microbial grade SPF) were obtained from Japan Claire Co., Ltd., acclimated in the animal breeding room for 5 days or more, and then subjected to the following experiments. An ethanol-adjusted MC903 solution was applied to the skin of the auricle of the mice at a dose of 2.25 nmol MC903/ear/once/day five times a week for 2 weeks (ten times in total) to induce atopic dermatitis (AD). This MC903-induced AD model is a model in which AD-like pathology can be reproduced in a short period of time (1-2 weeks) by artificially inducing the secretion of TSLP from epithelial cells, which is actually seen in AD patients, thereby eliciting a series of type 2 immune response cascades (Li M et al., Proc Natl Acad Sci USA. 2006; 103:11736-41).
They were then divided into the control group and the peptide administration group (n=7 in each group), while the groups were equalized based on the auricle thickness in consideration of the difference in the severity of inflammation between individuals. For peptide administration, the solution of peptide 1r10 adjusted to 0.3 mg/mL with physiological saline was injected into the tail vein at a volume of 5 mL/kg (peptide dose of 1.5 mg/kg) twice in total, once on the grouping day (Day 15) and once during the following 4 days (Day 16 to Day 19). For the control group a solution of bovine serum albumin (BSA) adjusted to 0.3 mg/mL with physiological saline was injected into the tail vein at a volume of 5 mL/kg (BSA dose of 1.5 mg/kg) twice in total, once on the grouping day (Day 15) and once during the following 4 days (Day 16 to Day 19).
During the peptide administration period (Day 15 to Day 19), ear swellings were measured daily to determine edema. Scaling, which is the main symptom of AD, was determined by photography (three times a week) using a digital camera (E-M1 II; Olympus) from a fixed base at a height of 13-14 cm from the auricle.
On the 4th day (Day 19) after the start of peptide administration, mice were placed under the influence of isoflurane anesthesia and euthanized with cervical spine dislocation. The skin at auricular inflammation site and its surroundings was quickly excised and collected while on ice to prevent protein denaturation of the sample. After removing excess hair and skin with tweezers, the collected auricular skin was immersed in 10% formalin and fixed at 4° C. overnight while shaking on ice using a shaker. After fixation, the skin was thoroughly washed with phosphate buffered saline (PBS) and trimmed, and then a paraffin block was made using an automatic embedding device (Excelsior ES; Thermo Scientific) with attention to the tissue polarity in the dorsoventral axis/left-right axis specific to the skin). Then, it was sliced (5 μm thick) with a rotary microtome (HM 325; Thermo Scientific), fixed on a slide glass, and subjected to various staining. As pathological analysis, skin thickness and infiltration of immune cells were evaluated by histochemical staining and fluorescent immunostaining, respectively.
To quantitatively evaluate the healing condition of the site of inflammation, hematoxylin-eosin (HE) staining of the paraffin thin sections (5 μm thick) of skin tissue generated as described above was performed to measure the dermal thickness. Specifically, three sections were prepared for each individual, and each section was photographed with a microscope (Keyence BZ-X710) at one site each of the center of inflammation, head side, and tail side (that is, a total of 9 sites were photographed per individual). […]

The subject of data set [2] is mesenchymal stem cells. Description: Colony assay of peripheral blood collected after peptide administration (mobilization of mesenchymal stem cells into peripheral blood). The data set is classed as in vivo, C57BL/6J mice. The conditions noted are these: 4 mg/kg tail vein; blood collected 14 hours after administration; 10 days culture; colonies of 50 or more cells; vs physiological saline. As for the experimental part: C57BL/6J mice (8 weeks old, male, body weight 25 g) were prepared and divided into a group administered with the artificial sequence peptide […] and a control group. The peptide was administered by injecting into the tail vein, a solution of peptide 1r10 adjusted to a concentration of […] using physiological saline as a solvent in an amount of 100 μL/animal (4 mg/kg dose of peptide). For the control group, physiological saline was injected into the tail vein in an amount of 100 μL/animal. […]
The supernatant (sample containing peripheral blood-derived cells) obtained by the above procedure was seeded on collagen I-coated 6-well plates (Corning, Cat No. 356400), and cultured for 10 days under the conditions of 37° C., 5% CO2 and 5% O2, using a medium containing Expansion Medium prepared using the MesenCult Expansion Kit (STEMCELL Technologies, Cat No. ST-05513) according to the manual of the kit, 1% L-glutamine (Nacalai Tesque Inc.), 10 μM ROCK inhibitor (Y27632, Tocris Bioscience) and 1% penicillin/streptomycin (Nacalai Tesque Inc.) (all numerical values are final concentrations). […] On the 10th day of culture, cells on the plates were stained with a Differential Quik Stain Kit (Sysmex Corporation, Cat No. 16920), and the number of colonies containing 50 or more cells was counted. […]

In the case of “peptide 1r10: artificial sequence peptide consisting of the amino acid sequence of SEQ ID NO: 1, chemically synthesized (IMWLCQYFFQCHKCAVKKKTWKEKKDRRHP)”, the dermis thickness result in data set [1] (1.5 mg/kg tail vein twice, 4th day (Day 19) after start of administration, HE staining, vs control group) is given as “statistically significant decrease”; in data set [1] (dose of 0.5 mg/kg, vs control group, data not shown) it was “statistically significant decrease”. In addition, the “scaling in the auricle” value in data set [1] (1.5 mg/kg tail vein twice, 4 days after start of peptide administration, vs control group (BSA)) is “reduction of scaling”. In addition, in data set [1] (1.5 mg/kg tail vein twice, Day 15 to Day 19, vs control group (BSA)), the “auricular thickness (edema)” value was “statistically significant reduction”. In addition, the “number of CD45-positive cells in auricular skin sections” value in data set [1] (1.5 mg/kg tail vein twice, Day 19, per high-power field (400×), vs control group) is recorded as “statistically significant decrease”. Further, the “changes in mouse body weight during the period of the study” value in data set [1] (Day 15 to Day 19, between the groups, p>0.05, repeated one-way ANOVA) is “not significantly different”. Besides, in data set [2], the “number of colonies obtained on the plate by culturing the peripheral blood-derived cells” value is given as “larger”.
